This is an account of results in patent US20220378738A1, “(+)-TRANS TETRAHYDROCANNABINOL ((+)-TRANS-THC) FOR USE AS A MEDICAMENT” (GW Research Limited, priority 2019, published 2022).

Each structure is given as a SMILES string. Marks after values point to notes of the source that are not given here.

Assay [1] has as its system mouse model of pain, the hotplate test. As to the kind of experiment: Hotplate test (52° C.), withdrawal threshold. The format is in vivo. As to conditions: for Withdrawal threshold (sec) Mean +/− SEM: N 13. As for the experimental part: Mice underwent a minimum habituation period of 7 days prior to study commencement. Naïve mice were acclimatised to the procedure room in their home cages, with food and water available ad libitum.
Animals were treated with either treatment vehicle, (+)-trans-THC at 3, 10, 30 and 300 mg/kg at 10 ml/kg i.p. or Morphine 10 mg/kg or Morphine vehicle (Saline) at 10 ml/kg i.p.
Animals were placed onto a hot plate set at 52° C. and time to withdrawal threshold (first response of lifting, licking front or hind paws or trying to escape) was taken at 1-hour post treatment, or at 0.5 hour after the positive control.
Animals were culled by a schedule 1 method, immediately after the measurement.
Data were analysed by comparing withdrawal thresholds back to Vehicle treated group.

The conditions of assay [2]: depending on the assay; cited from earlier work.
Assay [3] has as its system mouse supramaximal electroshock seizure (MES) model of generalized seizures. As to the kind of experiment: Maximal electroshock (MES) test, number of tonic convulsions. Type of assay: in vivo. The settings on record: for % change from vehicle (number of tonic clonic seizures after MES): 250 mg/kg I.P., pre-treatment time 30 mins, N 16. As for the experimental part:
Mice were administered MES (30 mA, rectangular current: 0.6 ms pulse width, 0.2 s duration, 50 Hz) via corneal electrodes connected to a constant current shock generator (Ugo Basile: type 7801) to reliably produce tonic hind limb convulsions. The number of tonic convulsions was recorded.
Sixteen mice were studied per group. The test was performed blind.
The test substance, (+)-trans-THC, was evaluated at 4 doses (3, 10, 30 and 300 mg/kg), administered i.p. 60 minutes before MES, and compared with a vehicle control group (administered under the same experimental conditions).
Valproate (positive control) was administered at 250 mg/kg i.p. 30 minutes before MES, was used as a reference substance and was compared with a vehicle group (administered i.p. 60 minutes before MES).
Data was analysed by comparing treated groups with the appropriate vehicle control using 2-tailed Fisher's Exact Probability tests (p<0.05 considered significant).

Regarding `CN1CC[C@]23c4c5ccc(O)c4O[C@H]2[C@@H](O)C=C[C@H]3[C@H]1C5` [Morphine], the “Withdrawal threshold (sec) Mean +/− SEM” value is 20.25 +/− 1.71 *** sec in assay [1] (10 mg/kg I.P., 0.5 hour after treatment) and “significant increase in the withdrawal threshold compared to vehicle” in assay [1] (10 mg/kg I.P., 0.5 hour after treatment, listed as morphine).

For the molecule `CCCCCc1cc(O)c2c(c1)OC(C)(C)[C@@H]1CCC(C)=C[C@@H]21` [(−)-trans-THC, (−)-trans-tetrahydrocannabinol], the “Potency relative to the (+)-trans-THC isomer” value in assay [2] is recorded as 6-100 times.

On to `CCCCCc1cc(O)c2c(c1)OC(C)(C)[C@H]1CCC(C)=C[C@H]21` (relative stereo) [(+)-trans-THC, (+)-trans-tetrahydrocannabinol], for which the “Withdrawal threshold (sec) Mean +/− SEM” value is 11.05 ± 0.72 s in assay [1] (3 mg/kg I.P., 1-hour post treatment); 12.63 ± 0.81 s in assay [1] (10 mg/kg I.P., 1-hour post treatment); 13.38 ± 1.03 s in assay [1] (30 mg/kg I.P., 1-hour post treatment). The “Anti-nociceptive effect in an animal model of pain (overall conclusion)” value in assay [1] (hotplate, 3-300 mg/kg i.p.) is “exhibits an anti-nociceptive effect”. The “Anti-convulsant effect in the MES model (overall conclusion)” value in assay [3] (3, 10, 30 and 300 mg/kg i.p.) is “no anti-convulsant effect”.

For `CCCC(CCC)C(=O)O` [Valproate], the “% change from vehicle (number of tonic clonic seizures after MES)” value in assay [3] is 100.0%; in assay [3] (listed as valproate), 100%.
